Assays:
[1] = tested on: NASH mice; assay: Murine model of non-alcoholic steatohepatitis (NASH; STZ and high fat diet); type: in vivo, mouse
From the text: The purpose of this study was to examine the protective effects of endoglin antibodies on a murine model of NASH.
NASH was established by a single subcutaneous injection of STZ (Sigma, USA) after birth and feeding with a high fat diet (HFD; CLEA Japan, Japan) ad libitum after 4 weeks of age (day 28±2).
Randomization of mice into 6 groups of 10 mice was done at 9 weeks of age (day 63±2), the day before the start of treatment.
Group 3 (Positive control; Temlisartan Group): Ten NASH mice were be orally administered pure water supplemented with telmisartan at a dose of 10 mg/kg once daily from day 63 to 84.
Group 4 (Antibody M1043: M1043 Group): Ten NASH mice were intravenously administered vehicle supplemented with Antibody M1043 at a dose of 10 mg/kg twice weekly at day 63, 66, 70, 73, 77 and 80.
Group 5 (Antibody TRC105; TRC105 Group): Ten NASH mice were intravenously administered vehicle supplemented with Antibody TRC105 at a dose of 10 mg/kg twice weekly at day 63, 66, 70, 73, 77 and 80.
Group 6 (Antibody TRC205; TRC205 Group): Ten NASH mice were intravenously administered vehicle supplemented with Antibody TRC205 at a dose of 10 mg/kg twice weekly at days 63, 66, 70, 73, 77 and 80.
Mice in all groups were terminated for the following assays at 12 weeks of age.
H&E staining of liver tissue was conducted to estimate NAFLD Activity score.
Total NAS score represents the sum of scores for steatosis, lobular inflammation, and ballooning, and ranges from 0-8. Diagnosis of NASH (or, alternatively, fatty liver not diagnostic of NASH) should be made first, then NAS is used to grade activity. In the reference study, NAS scores of 0-2 occurred in cases largely considered not diagnostic of NASH, scores of 3-4 were evenly divided among those considered not diagnostic, borderline, or positive for NASH. Scores of 5-8 occurred in cases that were largely considered diagnostic of NASH.
Statistical tests were performed using Bonferroni Multiple Comparison Test. P values<0.05 were considered statistically significant.

[2] = tested on: peripheral blood mononuclear cells (PBMCs); assay: EpiScreen time course T cell proliferation assay with intact anti-endoglin antibodies; type: cell-based, human
From the text: This example describes a method of screening anti-endoglin antibodies for T-cell epitopes. The interaction between MHC, polypeptide and T cell receptor (TCR) provides the structural basis for the antigen specificity of T cell recognition. T cell proliferation assays test the binding of polypeptides processed from antibodies to MHC and the recognition of MHC/polypeptide complexes by the TCR. In vitro T cell proliferation assays of the present example, involve the stimulation of peripheral blood mononuclear cells (PBMCs), containing antigen presenting cells (APCs) and T cells. Stimulation is conducted in vitro using intact anti-endoglin antibodies. Stimulated T cell proliferation is measured using ^3H-thymidine (^3H-Thy) and the presence of incorporated ^3H-Thymidine is assessed using scintillation counting of washed fixed cells.
Anti-endoglin antibodies were purified from the supernatants of mammalian cultures by protein A chromatography. Buffer exchange and protein concentration was done using PBS pH=7.4. Anti-endoglin antibody was further purified by size exclusion chromatography using a Sephacryl S200 column (GE Healthcare, AMersham, UK). The major peak is collected, filter sterilized and shown to have endotoxin levels <5 EU/mg using an Endosafe-PTS (Charles River, Margate, UK). The purified antibodies are stored at 4 degrees Celsius. Final concentrations were determined by UV absorption using calculated molar extinction coefficients, where A280 1.0=1.62 mg/mL. Each antibody was then diluted to 100 μg/mL in AIMV culture medium.
Peripheral Blood Mononuclear cells (PBMC) are isolated from healthy community donor buffy coats (from blood drawn within 24 hours) which are obtained from the UK National Blood Transfusion Service (Addenbrooke's Hospital, Cambridge, UK) according to approval granted by Addenbrooke's Hospital Local Research Ethics Committee. PBMC are isolated from buffy coats by Lymphoprep (Axis-shield, Dundee, Scotland) density centrifugation and CD8+ T cells are depleted using CD8+ RossetteSep™ (StemCell Technologies, Inc.). Donors are characterized by identifying HLA-DR haplotypes using a Biotest HLA SSP-PCR based tissue-typing kit (Biotest, Landsteinerstralβe, […]). T cell responses to a control antigen, Keyhole Limpet Haemocyanin (KLH) (Pierce, Rockford, Ill., USA) are determined for a positive control. PBMC were then frozen and stored in liquid nitrogen until required. When required for use, cells are thawed rapidly in a water bath at 37° C. before transferring to 10 ml pre-warmed AIM V medium.
A cohort of 20 donors is selected to best represent the number and frequency of HLA-DR allotypes expressed in the world population. […]
PBMCs from each donor are thawed, counted and viability assessed. […]

[3] = molecular target: T1, human endoglin (Homo sapiens, UniProt P17813); assay: BIAcore (surface plasmon resonance) analysis of anti-endoglin antibody binding; conditions: antibody captured on protein A chip, 25 degrees Celsius
T1 sequence (P17813 26-658): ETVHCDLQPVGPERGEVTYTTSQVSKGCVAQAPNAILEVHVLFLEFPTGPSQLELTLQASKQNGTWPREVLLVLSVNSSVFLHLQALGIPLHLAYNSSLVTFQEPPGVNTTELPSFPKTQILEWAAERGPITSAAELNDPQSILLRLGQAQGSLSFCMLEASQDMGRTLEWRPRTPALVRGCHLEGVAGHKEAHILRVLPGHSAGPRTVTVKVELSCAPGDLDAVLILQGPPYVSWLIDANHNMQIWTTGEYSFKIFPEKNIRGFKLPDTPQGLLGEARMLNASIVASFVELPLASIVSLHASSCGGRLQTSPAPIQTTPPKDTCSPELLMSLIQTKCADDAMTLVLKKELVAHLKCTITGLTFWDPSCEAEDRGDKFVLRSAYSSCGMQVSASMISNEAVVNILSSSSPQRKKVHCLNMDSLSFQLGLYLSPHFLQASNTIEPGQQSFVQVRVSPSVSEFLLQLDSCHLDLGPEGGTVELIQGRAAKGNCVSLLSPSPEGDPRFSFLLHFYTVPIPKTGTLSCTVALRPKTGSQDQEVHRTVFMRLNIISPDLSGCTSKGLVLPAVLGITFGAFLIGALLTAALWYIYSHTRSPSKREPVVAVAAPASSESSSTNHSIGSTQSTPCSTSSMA
Description: Affinity of antibodies can be assessed using, for example, BIAcore analysis using standard protocols. Briefly, protein A is chemically coupled to a BIAcore CM5 chip, with the amount of protein A immobilized corresponding to 2000 RU. Subsequent steps are performed in a running buffer of 10 mM HEPES, 150 mM NaCl, 3 mM EDTA, 0.05% TWEEN, pH=7.4, at 25 degrees Celsius using a 10 Hz data collection rate. Anti-endoglin antibody (10 nM) is captured at a 10 μL/min flow rate by the immobilized protein A on the BIAcore chip: typically, capture times of 20, 40 and 80 seconds allow the capture of antibody densities corresponding to 130 RU, 330 RU and 570 RU, respectively. Start-up cycles are performed using running buffer at a flow rate of 40 μL/min, a contact time of 90 seconds and a dissociation time of 90 seconds. Sample cycles are performed using recombinant endoglin at concentrations ranging from 0 to 40 nM. Endoglin is passed over the BIAcore chip containing captured antibody at a flow rate of 40 μL/min with a contact time of 525 seconds and dissociation time of 2500 seconds. Eight sample cycles are typically performed at each antibody capture density. Regeneration of the chip is accomplished using 10 mM glycine pH=1.7. Data analysis is performed using BIAcore T100 Evaluation Software v1.1 Signals generated using BIAcore chips with different captured antibody densities are compared and data generated in the absence of recombinant endoglin are used to adjust for the intraassay blank signal. For fitting of the data, the Rmax is allowed to float to account for variation in capture levels of each antibody in each cycle. Data from each capture density is fitted simultaneously during analysis of each antibody. BIAcore data are presented in Table 2 for chimeric, humanized and deimmunized anti-endoglin antibodies, including ka (1/Ms), kd (1/s), KD (M) and Chi^2 (RU^2).

[4] = liver gene expression, mean ± SD, Normal-Vehicle 1.0

`CCCc1nc2c(C)cc(-c3nc4ccccc4n3C)cc2n1Cc1ccc(-c2ccccc2C(=O)O)cc1` [Telmisartan, telmisartan, reference compound] was tested, and the “Alpha-smooth muscle actin mRNA expression levels compared with the NASH-Vehicle group” value ([1]; Bonferroni, P<0.05) was “significantly down-regulated”, the “Liver triglyceride contents compared with the NASH-Vehicle group” value ([1]; Bonferroni, P<0.05) was “significant decreases” and the “Macrophage chemoattractant protein-1 mRNA expression levels compared with the NASH-Vehicle group” value ([1]; Bonferroni, P<0.05) was “tended to decrease”. For the same molecule, the “Mean liver weight compared with the NASH-Vehicle group” value ([1]; Bonferroni, P<0.05) was “significant decrease”, the “Mean liver-to-body weight ratio compared with the NASH-Vehicle group” value ([1]; Bonferroni, P<0.05) was “significant decreases” and the “NAS compared with the NASH-Vehicle group” value ([1]; Bonferroni, P<0.05) was “significant decreases in NAS”. For the same molecule, the “Serum alanine aminotransferase (ALT) levels compared with the NASH-Vehicle group” value ([1]; Bonferroni, P<0.05) was “tended to decrease”, the “Sirius red-positive area compared with the NASH-Vehicle group” value ([1]; Bonferroni, P<0.05) was “significant decrease” and the “F4/80-positive signals and cells in liver compared with the NASH-Vehicle group” value ([1]; F4/80 immunostaining, macrophage marker) was “No obvious changes”. The “Alpha-SMA mRNA expression” value [1, 4] was 0.7 ± 0.3, the “MCP-1 mRNA expression” value [1, 4] was 1.5 ± 1.1 and the “TIMP-1 mRNA expression” value [1, 4] was 5.8 ± 3.7. The “TNF-α mRNA expression” value [1, 4] was 3.2 ± 2.3, the Liver triglyceride ([1]; mean ± SD) was 23.5 ± 10.6 mg/g liver and the “Serum ALP” value ([1]; mean ± SD) was 444 ± 134 U/L. For the same molecule, the “Serum ALT” value ([1]; mean ± SD) was 29 ± 15 U/L, the “Serum AST” value ([1]; mean ± SD) was 113 ± 32 U/L and the Sirius red-positive area ([1]; mean ± SD, liver sections) was 0.67 ± 0.12%. The “NAS (NAFLD Activity score)” value ([1]; mean ± SD, range 0-8, 10 mg/kg) was 3.3 ± 1.2, the “Lobular inflammation score 0, number of mice” value ([1]; score 0 = No Foci) was 3 and the “Hepatocyte ballooning score 0, number of mice” value ([1]; score 0 = None) was 1. The “Steatosis score 1, number of mice” value ([1]; score 1 = 5-33%) was 9, the “Lobular inflammation score 1, number of mice” value ([1]; score 1 = <2 foci/200x) was 4 and the “Hepatocyte ballooning score 1, number of mice” value ([1]; score 1 = Few balloon cells) was 3. The “Lobular inflammation score 2, number of mice” value ([1]; score 2 = 2-4 foci/200x) was 2 and the “Hepatocyte ballooning score 2, number of mice” value ([1]; score 2 = Many cells/prominent ballooning) was 5.

B1: VK1VH1: humanized anti-endoglin antibody (antibody, V domains shown)
VH: EVQLVESGGGLVKPGGSLRLSCAASGFTFSDAWMDWVRQAPGKGLEWVGEIRSKASNHATYYAESVKGRFTISRDDSKNTLYLQMNSLKTEDTAVYYCTRWRRFFDSWGQGTLVTVSS
VL: DIQMTQSPSSLSASVGDRVTITCRASSSVSYMHWYQQKPGKAPKPWIYATSNLASGVPSRFSGSGSGTDYTLTISSLQPEDFATYYCQQWSSNPLTFGGGTKVEIK
B1 was tested, and the “Responding donors, % of the study cohort” value ([2]; cohort of 20 donors, 50 μg/mL antibody) was 10%, the “Stimulation index (borderline response)” value ([2]; donor 20) was 1.91 and the “Donors with positive T cell proliferation responses” value ([2]; of 20 donors, 50 μg/mL antibody, SI≥2 (borderline ≥1.90), p<0.05) was 2.

B2: VK1AAVH1Q: humanized/deimmunized anti-endoglin antibody (antibody, V domains shown)
VH: EVQLVESGGGLVKPGGSLRLSCAASGFTFSDAWMDWVRQAPGKGLEWVGEIRSQASNHATYYAESVKGRFTISRDDSKNTLYLQMNSLKTEDTAVYYCTRWRRFFDSWGQGTLVTVSS
VL: DIQMTQSPSSLSASVGDRATITCRASSSVSYMHWYQQKPGKAPKPWAYATSNLASGVPSRFSGSGSGTDYTLTISSLQPEDFATYYCQQWSSNPLTFGGGTKVEIK
B2 showed a ka [3] of 35600 M⁻¹ s⁻¹ and a kd [3] of 3.03e-05 s⁻¹.

B3: VK1AAVH1R: humanized/deimmunized anti-endoglin antibody (antibody, V domains shown)
VH: EVQLVESGGGLVKPGGSLRLSCAASGFTFSDAWMDWVRQAPGKGLEWVGEIRSRASNHATYYAESVKGRFTISRDDSKNTLYLQMNSLKTEDTAVYYCTRWRRFFDSWGQGTLVTVSS
VL: DIQMTQSPSSLSASVGDRATITCRASSSVSYMHWYQQKPGKAPKPWAYATSNLASGVPSRFSGSGSGTDYTLTISSLQPEDFATYYCQQWSSNPLTFGGGTKVEIK
In the case of B3, the ka [3] is reported as 64000 M⁻¹ s⁻¹ and the kd [3] is reported as 3.41e-05 s⁻¹.

Reference: US9926375B2, “Anti-endoglin antibodies and uses thereof” (Tracon Pharmaceuticals, Inc., priority 2014, dated 2018)
